# Measurements from patent US20240398781A1, “SPIROCYCLIC CYCLIC MODULATORS OF CHOLESTEROL BIOSYNTHESIS AND THEIR USE FOR PROMOTING REMYELINATION” (GENENTECH, INC., priority 2021, published 2024).
# Columns and labels:
# [1] = molecular target: human emopamil binding protein and human 7-dehydrocholesterol reductase co-expressing cells (hEBP-DHCR7 membrane) (Homo sapiens (Human), UniProt Q15125); experiment: Radioligand filter binding assay on hEBP-DHCR7 membrane; conditions: [3H]-(S)-6-(2-Methyl-3-(6-(trifluoromethyl)pyridin-3-yl)propyl)-2-thia-6-azaspiro[3.4]octane 2,2-dioxide radioligand, HEK293 membrane co-expressing hEBP and hDHCR7
# Procedure: Membrane Preparation: human emopamil binding protein and human 7-dehydrocholesterol reductase co-expressing cells were generated by transient transfecting host human embryonic kidney (HEK) 293 cells with 2 DNA constructs containing each protein's coding sequence. Cells were suspension cultured at 37° C. with 5% CO2 in […] 293 Expression Medium (Thermofisher). Whole cell membrane was prepared by harvesting the cell pellet, adding cold membrane buffer (50 mM Tris, pH7.5, lx Roche COMPLETE EDTA-free protease inhibitor cocktail) 10 times volume of the cell pellets weight, lysing cell pellet on ice by using Dounce homogenizer, spinning at 200 g 4° C. for 15 min, collecting supernatant and spinning again at 25000 g 4° C. for 50 min, transferring pellet to Dounce homogenizer, re-suspending pellet by homogenizing in membrane buffer on ice to reach ˜25 mg/mL, then keeping whole cell membrane aliquots at −80° C.
# Compounds were prepared in a 96-well U bottom plate using an Echo550 machine and 10 mM compound DMSO stock solution, followed by an 8-dose 5-fold serial dilutions protocol with final testing compound concentration ranging from 0.06 to 5000 nM, with DMSO back fill to 100 nL/well and n=2. […] The UniFilter-96 GF/B plates were pre-treated by adding 50 μl/well of 0.3% (v/v) PEI to UniFilter-96 GF/B plates. The plates were sealed and incubated at 4° C. for 3 hrs. Then, the plates were washed with ice-cold assay buffer 3 times. The radioligand binding assay was prepared by adding assay buffer diluted hEBP-DHCR7 membrane at 66.7 μg/ml×150 μl/well into the 96-well compound plate to reach 10 μg membrane per well. Then, the assay buffer diluted [3H]—(S)-6-(2-Methyl-3-(6-(trifluoromethyl)pyridin-3-yl)propyl)-2-thia-6-azaspiro[3.4] octane 2,2-dioxide was added at 25 nM×50 μl/well. Following this, the plate was centrifuged at 1000 rpm for 30 secs. The plate was then sealed and agitated at 600 rpm at 22° C. for 5 min, and then incubated at 22° C. for 3 hrs. The incubation was stopped by transferring the binding solution to the pre-treated UniFilter-96 GF/B plate, vacuum filtrated, and then washed four times with ice-cold assay buffer. Following this, the plates were dried at 37° C. for 45 min. The plates were then sealed at the bottom. 40 μl/well of scintillation cocktail was added to the plates. A MicroBeta2 microplate counter was then used to read the plate and analyze the data. For reference and test compounds, the results are expressed as % Inhibition, using the normalization equation: N=100−100×(U−C2)/(C1−C2), where U is the unknown value, C1 is the average of high controls, and C2 is the average value of low controls. The IC50 was determined by fitting percentage of inhibition as a function of compound concentrations with Hill equation using XLfit. Results are expressed as hEBP-DHCR7 Ki (uM) in Table 4. Ki was calculated as described above. The asterix (*) indicates an isolated isomer or isolated group of isomers, but that the stereochemistry has not been assigned.
# EpiSC-derived OPCs = experiment: In vitro phenotypic screening of OPCs (MBP staining, high-content imaging); assay type: cell-based, mouse; conditions: Mus musculus, 72 h, percentage of MBP+ oligodendrocytes, 3 days, 0.5 nM to 1000 nM; read-out: OPC EC50
# Procedure: To assess effects of treatments on OPCs, all treatments were assayed in two or more independent platings of epiblast stem cell-derived OPCs (EpiSC). EpiSC-derived OPCs were obtained using in vitro differentiation protocols and culture conditions described previously (Najm et al, 2011, Nature Methods). OPCs were expanded and frozen down in aliquots. OPCs were thawed into growth conditions for at least one passage before use in further assays.
# EpiSC-derived OPCs were grown and expanded in poly-L-ornithine (PO) and laminin-coated flasks in N2B27 media (DMEM/F12 (Gibco), N2-MAX (R&D Systems), B-27 (ThermoFisher), and GlutaMax (Gibco)) supplemented with FGF2 ([…], R&D systems, 233-FB-025) and PDGF-AA ([…], R&D systems, 233-AA-050) before harvesting for experiments. The cells were seeded onto poly-L-ornithine or poly-D-lysine coated CellCarrier Ultra plates (PerkinElmer) coated with laminin (Sigma, L2020) at a density of 150,000/cm^2 in N2B27 media without growth factors. For dose-response testing, a 1000× compound stock in dimethyl sulphoxide (DMSO) was added to assay plates, resulting in 8-point dose curves with final concentrations between 1000 nM and 0.5 nM. Positive controls and DMSO vehicle controls were included in each assay plate. Cells were incubated under standard conditions (37° C., 5% CO2) for 3 days and fixed with 4% paraformaldehyde (PFA) in phosphate buffered saline (PBS) for 20 min. Fixed plates were washed with PBS, permeabilized with 0.1% Triton X-100, and blocked with 10% donkey serum (v/v) in PBS for 40 min. Then, cells were labelled with MBP antibodies (Abcam, ab7349; 1:200) for 2 h at room temperature, washed with PBS, and stained with Alexa Fluor conjugated secondary antibodies (1:500) for 45 min. Nuclei were visualized by DAPI staining (Sigma; 1 μg/ml), followed by further PBS washes.
# Cells and cell culture plates were imaged on the Operetta High Content Imaging and Analysis system (PerkinElmer). Analysis (PerkinElmer Harmony and Columbus software) began by identifying intact nuclei stained by DAPI. The peri-nuclear region of each cell was then cross-referenced with the mature myelin protein (MBP) stain to identify oligodendrocyte nuclei, and from this the percentage of oligodendrocytes was calculated. EC50 values were calculated using The Levenberg-Marquardt algorithm to fit a Hill equation to dose-response data (0.5 nM to 1000 nM).
# [2] = system: EBP (zymostenol accumulation in EpiSC-derived OPCs); experiment: GC/MS-based sterol profiling, zymostenol accumulation in OPCs; assay type: cell-based, mouse; conditions: Mus musculus, 24 h, EpiSC-derived OPCs, 24 hr treatment, 8 doses from 0.15 nM to 333 nM; read-out: Zymostenol GCMS EC50
# Summary of the method: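 EpiSC-derived OPCs (100,000/well) were treated 24 h in N2B27 without growth factors. Sterols were TMS-derivatized and analysed by GC/MS full-scan EI, quantified against cholesterol-d7. Zymostenol was normalized to the level after 24 h with 100 nM positive control reference.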
# human emopamil binding protein and human 7-dehydrocholesterol reductase co-expressing cells (hEBP-DHCR7 membrane), sequence (Q15125 whole entry): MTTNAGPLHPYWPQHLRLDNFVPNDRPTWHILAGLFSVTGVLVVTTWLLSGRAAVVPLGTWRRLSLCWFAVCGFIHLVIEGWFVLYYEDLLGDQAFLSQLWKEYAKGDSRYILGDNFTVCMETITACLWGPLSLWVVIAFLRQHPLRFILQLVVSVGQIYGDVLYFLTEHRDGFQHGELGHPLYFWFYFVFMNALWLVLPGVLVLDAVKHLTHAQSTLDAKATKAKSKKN
Ki [1] [nM],EC50 (EpiSC-derived OPCs) [nM],EC50 [2] [nM],Structure (SMILES)
33,13,5.7,"O=S1(=O)CC2(CCN([C@H]3CC[C@H](c4ccc(F)c(F)c4)CC3)CC2)C1 [Compound 77A, 7-((1r,4r)-4-(3,4-Difluorophenyl)cyclohexyl)-2-thia-7-azaspiro[3.5]nonane 2,2-dioxide]"
1180,190,88,"O=S1(=O)CC2(CCN(C3CC[C@H](c4nc(-c5cccc(C(F)(F)F)n5)nn4C4CC4)C3)CC2)C1 (stereo in doubt) [42C*, 7-((1S,3S)-3-(1-Cyclopropyl-3-(6-(trifluoromethyl)pyridin-2-yl)-1H-1,2,4-triazol-5-yl)cyclopentyl)-2-thia-7-azaspiro[3.5]nonane 2,2-dioxide]"
9,14,4,"O=S1(=O)CC2(CCN(C3CCN(c4ncc(C(F)(F)F)cc4C4CC4)CC3)C2)C1 [Compound 44, 6-(1-(3-Cyclopropyl-5-(trifluoromethyl)pyridin-2-yl)piperidin-4-yl)-2-thia-6-azaspiro[3.4]octane 2,2-dioxide]"
27,44,6,"O=S1(=O)CC[C@]2(CCCN([C@H]3CC[C@@H](c4cc(C(F)(F)F)nn4C4CC4)CC3)C2)C1 (single isomer, unassigned) [69C*]"
100,1000,240,"O=S1(=O)CC2(CCN([C@@H]3CCC[C@@H](c4ccc(C(F)(F)F)nc4)C3)C2)C1 (single isomer, unassigned) [54B*]"
37,124,19,"CC(C)n1nc(C(F)(F)F)cc1[C@H]1CCC[C@H](N2CCC3(CC2)CS(=O)(=O)C3)C1 (single isomer, unassigned) [78D*]"
790,273,28,"CC(C)n1nc(C(F)(F)F)cc1[C@H]1CCC[C@@H](N2CCC3(CC2)CS(=O)(=O)C3)C1 (single isomer, unassigned) [78C*]"
22,7.3,4.4,"CC(C)n1nc(-c2ccc(C(F)(F)F)cc2)nc1[C@H]1CCC(N2CCC3(CC2)CS(=O)(=O)C3)C1 (stereo in doubt) [Compound 58A, 7-((1R,3S)-3-(1-Isopropyl-3-(4-(trifluoromethyl)phenyl)-1H-1,2,4-triazol-5-yl)cyclopentyl)-2-thia-7-azaspiro[3.5]nonane 2,2-dioxide]"
133,21,10,"O=S1(=O)CC2(CCN([C@H]3CC[C@H](c4ccnc(C(F)(F)F)c4)CC3)C2)C1 [Compound 60A, 6-((1r,4r)-4-(2-(trifluoromethyl)pyridin-4-yl)cyclohexyl)-2-thia-6-azaspiro[3.4]octane 2,2-dioxide]"
31,53,7.5,"CC(C)n1nc(C(F)(F)F)cc1[C@@H]1CCC[C@H](N2CCC3(C2)CS(=O)(=O)C3)C1 (single isomer, unassigned) [61C*]"
9.9,2.4,0.89,"CC(C)n1nc(-c2ccc(C(F)(F)F)cc2)nc1[C@H]1CC[C@@H](N2CCC3(C2)CS(=O)(=O)C3)C1 (single isomer, unassigned) [53B*]"
26,18,8.3,"Cc1nc(C(F)(F)F)ccc1[C@H]1CC[C@H](N2CCC3(C2)CS(=O)(=O)C3)CC1 [Compound 51A, 6-((1r,4r)-4-(2-Methyl-6-(trifluoromethyl)pyridin-3-yl)cyclohexyl)-2-thia-6-azaspiro[3.4]octane 2,2-dioxide]"
154,230,31,"CC(C)(C)n1nc(C2CC2)nc1[C@@H]1CC[C@H](N2CCC3(C2)CS(=O)(=O)C3)C1 [Compound 74A, 6-((1S,3R)-3-(1-(tert-butyl)-3-cyclopropyl-1H-1,2,4-triazol-5-yl)cyclopentyl)-2-thia-6-azaspiro[3.4]octane 2,2-dioxide]"
710,520,170,"O=S1(=O)CCC2(CCN([C@H]3CC[C@H](c4ccc(C(F)(F)F)nc4)CC3)C2)CC1 [Compound 95A, 2-((1r,4r)-4-(6-(Trifluoromethyl)pyridin-3-yl)cyclohexyl)-8-thia-2-azaspiro[4.5]decane 8,8-dioxide]"
21,3.4,2.3,"CC(C)n1nc(-c2ccc(C(F)(F)F)cc2)nc1[C@H]1CCC(N2CCC3(CC2)CS(=O)(=O)C3)C1 (stereo in doubt) [Compound 58B, 7-((1S,3S)-3-(1-isopropyl-3-(4-(trifluoromethyl)phenyl)-1H-1,2,4-triazol-5-yl)cyclopentyl)-2-thia-7-azaspiro[3.5]nonane 2,2-dioxide]"
28,38,8,"O=S1(=O)CC2(CCN([C@H]3CC[C@@H](c4ncc(C(F)(F)F)cc4F)CC3)CC2)C1 [Compound 80B, 7-((1s,4s)-4-(3-fluoro-5-(trifluoromethyl)pyridin-2-yl)cyclohexyl)-2-thia-7-azaspiro[3.5]nonane 2,2-dioxide]"
37,13,6.4,"O=S1(=O)CC2(CCN([C@H]3CC[C@H](c4cccc(C(F)(F)F)n4)CC3)C2)C1 [Compound 62B, 6-((1r,4r)-4-(6-(trifluoromethyl)pyridin-2-yl)cyclohexyl)-2-thia-6-azaspiro[3.4]octane 2,2-dioxide]"
18,7.7,4.8,"O=S1(=O)CC2(CCN(C3CCN(c4ncc(C(F)(F)F)cc4F)CC3)CC2)C1 [Compound 52, 7-(1-(3-Fluoro-5-(trifluoromethyl)pyridin-2-yl)piperidin-4-yl)-2-thia-7-azaspiro[3.5]nonane 2,2-dioxide]"
